Test results as given in patent publication US12162885B2, “Crystal form of Xevinapant for treating LA SCCHN” (CRYSTAL PHARMACEUTICAL (SUZHOU) CO., LTD., priority 2022, dated 2024).
Entries after “also recorded” stand apart in the source; their conditions may differ.

Key:
[1] = Storage stability of drug substance with open package (HPLC purity, XRPD form, appearance); type: physicochemical
Description: An appropriate amount of Form CSI was packaged with corresponding condition, and then stored with open package under 25° C./60% RH, 40° C./75% RH and 60° C./75% RH conditions for a period. Appropriate amounts of prior art solids were packaged with corresponding condition, and then stored with open package under 25° C./60% RH and 60° C./75% RH conditions for a period. Chemical purity and crystalline form were checked by HPLC and XRPD, respectively. The appearance comparison of prior art solid A and Solid B before and after storage are shown in FIG. 19 and FIG. 20, respectively.
Open: Put the sample into a glass vial, cover the vial with aluminum foil, and punch 5-10 holes in the foil.
An appropriate amount of Form CSII and prior art solids were packaged with corresponding conditions, and then stored with open package under 25° C./60% RH and 60° C./75% RH for a period. Chemical purity and crystalline form were checked by HPLC and XRPD, respectively. The appearance comparison of prior art solid A and Solid B before and after storage are shown in FIG. 19 and FIG. 20, respectively.

[2] = Stability of crystalline form in the formulation process (XRPD); type: physicochemical; settings: formulation of Table 9, process of Table 10
Description: An XRPD of blank prescription (excipients) and the samples before and after the formulation were tested, and result is shown in FIG. 24. […] [table] [table] An XRPD of Blank prescription (excipients) and Form CSII before and after the formulation were tested, and result is shown in FIG. 28.

[3] = Stability upon mechanical force (ball milling, tableting; XRPD); type: physicochemical; settings: for Crystalline form before and after tableting (XRPD): manual tablet press, 20 kN, 6 mm round tooling; for Crystal form before and after ball milling (XRPD): milled 5 min at 500 rpm in a ball mill
Description: Form CSI was milled for 5 min at a vibration speed of 500 rpm in a ball mill. The sample before and after ball milling were checked by XRPD. […] An appropriate amount of Form CSI was compressed into a tablet using a manual tablet press under a pressure of 20 kN with a ϕ6 mm round tooling. Crystalline form before and after tableting were checked by XRPD. […] Form CSII was milled for 5 min at a vibration speed of 500 rpm in a ball mill. The sample before and after ball milling were checked by XRPD. […] An appropriate amount of Form CSII was compressed into a tablet using a manual tablet press under a pressure of 20 kN with a @6 mm round tooling. Crystalline form before and after tableting were checked by XRPD.

Hygroscopicity by DVS = type: physicochemical; settings: from 0% RH to 80% RH
Description: Dynamic Vapor Sorption (DVS) was measured via an SMS (Surface Measurement Systems Ltd.) intrinsic DVS instrument. The instrument control software is DVS-Intrinsic control software. Typical Parameters for DVS test are as follows: • Temperature: 25° C. • Gas and flow rate: N2, 200 mL/min • dm/dt: 0.002%/min • RH range: 0% RH-95% RH DVS analyzer was applied to evaluate the hygroscopicity of Form CSI with about 10 mg of sample. […] DVS analyzer was applied to evaluate the hygroscopicity of Form CSII with about 10 mg of sample.

[4] = Humidity stability test with DVS analyzer; type: physicochemical; settings: DVS 0% RH-95% RH
Description: Dynamic Vapor Sorption (DVS) was measured via an SMS (Surface Measurement Systems Ltd.) intrinsic DVS instrument. The instrument control software is DVS-Intrinsic control software. Typical Parameters for DVS test are as follows: • Temperature: 25° C. • Gas and flow rate: N2, 200 mL/min • dm/dt: 0.002%/min • RH range: 0% RH-95% RH
DVS analyzer was applied to evaluate the humidity stability of prior art solids, Form CSI and Form CSII. The appearance of Form CSI before and after humidity stability test is shown in FIG. 12, and an XRPD pattern of Form CSI before and after test is shown in FIG. 13. The appearance of Form CSII before and after humidity stability test is shown in FIG. 14, and an XRPD pattern of Form CSII before and after test is shown in FIG. 15.

LA SCCHN = settings: phase 2 clinical trial, combination with CRT compared to CRT alone; cited from earlier work
[5] = Initial (baseline of storage stability)

Row | Compound | Appearance ([1]; Initial) | Form ([1]; Initial) | Crystalline form before and after tableting (XRPD) [3] | Crystal form before and after ball milling (XRPD) [3] | Weight gain (Hygroscopicity by DVS) [%] | Appearance after test [4] | Crystal change before and after humidity stability test (XRPD) [4] | Purity [1, 5] [%] | Appearance ([1]; 25° C./60% RH, Open, 1 month) | Form ([1]; 25° C./60% RH, Open, 1 month) | Purity ([1]; 25° C./60% RH, Open, 1 month) [%] | Appearance ([1]; 60° C./75% RH, Open, 1 week) | Form ([1]; 60° C./75% RH, Open, 1 week) | Crystalline form before and after the formulation process (XRPD) [2] | also measured
1 | CN[C@@H](C)C(=O)N[C@H]1CN(C(=O)CC(C)C)CC[C@H]2CC[C@@H](C(=O)NC(c3ccccc3)c3ccccc3)N2C1=O.O=C(O)C(F)(F)F [Prior art Solid B, reference compound] | Powder | Amorphous |  |  |  | Transparent solid |  | 98.87 | Powder | Amorphous | 98.73 | Gel | Gel |  | 
2 | CN[C@@H](C)C(=O)N[C@H]1CN(C(=O)CC(C)C)CC[C@H]2CC[C@@H](C(=O)NC(c3ccccc3)c3ccccc3)N2C1=O [Xevinapant, (5S,8S,10aR)—N-benzhydryl-5-((S)-2-(methylamino)propanamido)-3-(3-methylbutanoyl)-6-oxodecahydropyrrolo[l,2-a][l,5]diazocine-8-carboxamide] |  |  |  |  |  |  |  |  |  |  |  |  |  |  | Efficacy in treating patients with LA SCCHN (LA SCCHN): demonstrated efficacy

The next lines start with results.

Row | Appearance ([1]; Initial) | Form ([1]; Initial) | Crystalline form before and after tableting (XRPD) [3] | Crystal form before and after ball milling (XRPD) [3] | Weight gain (Hygroscopicity by DVS) [%] | Appearance after test [4] | Crystal change before and after humidity stability test (XRPD) [4] | Purity [1, 5] [%] | Appearance ([1]; 25° C./60% RH, Open, 1 month) | Form ([1]; 25° C./60% RH, Open, 1 month) | Purity ([1]; 25° C./60% RH, Open, 1 month) [%] | Appearance ([1]; 60° C./75% RH, Open, 1 week) | Form ([1]; 60° C./75% RH, Open, 1 week) | Compound | Crystalline form before and after the formulation process (XRPD) [2] | also measured
3 | Powder | Form CSII | kept stable after tableting | keeps stable after ball milling | 1.16 | Powder | no crystal change |  |  |  |  |  |  | CN[C@@H](C)C(=O)N[C@H]1CN(C(=O)CC(C)C)CC[C@H]2CC[C@@H](C(=O)NC(c3ccccc3)c3ccccc3)N2C1=O [Form CSII] | keeps stable before and after the formulation process | Physical stability ([1]; 60° C./75% RH open condition): keeps physically stable for at least four weeks; Appearance ([1]; 60° C./75% RH, Open, 4 weeks): Powder; Form ([1]; 60° C./75% RH, Open, 4 weeks): No crystal change; also recorded: Form CSII
4 | Powder | Form CSI | keeps stable after tableting | No crystal change | 0.46 | Powder | no crystal change | 99.50 |  |  |  |  |  | CN[C@@H](C)C(=O)N[C@H]1CN(C(=O)CC(C)C)CC[C@H]2CC[C@@H](C(=O)NC(c3ccccc3)c3ccccc3)N2C1=O [Form CSI] | keeps stable before and after the formulation process | Time stable ([1]; 25° C./60% RH open condition): at least 6 months; Appearance ([1]; 25° C./60% RH, Open, 6 months): Powder; Form ([1]; 25° C./60% RH, Open, 6 months): Form CSI; Purity ([1]; 25° C./60% RH, Open, 6 months): 99.45%; Time stable ([1]; 40° C./75% RH open condition): at least 6 months; Appearance ([1]; 40° C./75% RH, Open, 6 months): Powder; Form ([1]; 40° C./75% RH, Open, 6 months): Form CSI; Purity ([1]; 40° C./75% RH, Open, 6 months): 99.45%; Time stable ([1]; 60° C./75% RH open condition): at least 3 months; Appearance ([1]; 60° C./75% RH, Open, 3 months): Powder; Form ([1]; 60° C./75% RH, Open, 3 months): Form CSI
5 | Powder | Amorphous |  |  |  | Transparent solid |  | 98.77 | Powder | Amorphous | 98.65 | Gel | Gel | CN[C@@H](C)C(=O)N[C@H]1CN(C(=O)CC(C)C)CC[C@H]2CC[C@@H](C(=O)NC(c3ccccc3)c3ccccc3)N2C1=O.Cl [Prior art Solid A, reference compound] |  | 
